Data on 11 compounds can be found in patent publication US6962931B2, “Self-emulsifying formulations of cholesteryl ester transfer protein inhibitors” (Pfizer Inc., priority 2001, dated 2005).

The data set is described as follows: Microsolubility estimate by repeated addition of vehicle. Particulars: thermodynamic from solid, read-out: Microsolubility. It counts as physicochemical. On the procedure:
For CETP inhibitors where quantities were limited, an estimate of solubility was obtained by addition of vehicle to a known quantity of the compound and mixing in an ultrasonicator bath for 90 minutes, followed by overnight equilibration at ambient temperature. Addition of vehicle was repeated until a solution was achieved.
For CETP inhibitors where quantities were limited or the samples were amorphous solids, an estimate of solubility was obtained by addition of vehicle to a known quantity of the compound and mixing in an ultrasonicator bath for 90 minutes, followed by overnight equilibration at ambient temperature. Addition of vehicle was repeated until a solution was achieved. From the total volume of vehicle added to solubilize the CETP inhibitor compound, the solubility value, or so-called microsolubility, was calculated by the equation: Weight of sample (mgA)/vehicle volume (mL)=Microsolubility (mgA/mL)

Where [1] appears, read: Corn, Safflower, Soybean oils, oil or lipid.
Where [2] appears, read: Crodamol GTCC/Capmul MCM/Polysorbate 80 (40/40/20), oil or lipid.
The mark [3] stands for this setting: PEG 400, organic solvent or mixture.
Setting [4] is: Cremophor EL, organic solvent or mixture.

The structures appear in SMILES notation. ≈ marks a conversion by molar mass, not a printed value. Like-named read-outs stand apart in the source and are kept apart here.

For the compound `CCOC(=O)N1c2cc3c(cc2[C@H](N(Cc2cc(C(F)(F)F)cc(C(F)(F)F)c2)C(=O)OC)C[C@@H]1C)CCC3` [Compound J, [2S,4R] 4-[(3,5-Bis-trifluoromethyl-benzyl)-methoxycarbonyl-amino]-2-methyl-2,3,4,6,7,8-hexahydro-cyclopenta[g]quinoline-1-carboxylic acid ethyl ester], the Solubility is, setting by setting: (Capmul MCM, oil or lipid) above 100 mg/mL; under setting [1], above 100 mg/mL; (Crodamol GTCC, oil or lipid) above 100 mg/mL; under setting [2], above 100 mg/mL; (Olive oil, oil or lipid) above 100 mg/mL; under setting [3], 50 to 100 mg/mL (≈ 89.5 to 179 mM). Also, the Solubility (Peanut oil, oil or lipid) is above 100 mg/mL and the Solubility (Sesame oil, oil or lipid) is above 100 mg/mL.

As for `CCCOC(=O)N1c2ccc(C(F)(F)F)cc2[C@@H](N(Cc2cc(C(F)(F)F)cc(C(F)(F)F)c2)C(C)=O)CC1C1CC1` (stereo in doubt) [Compound M, [2R,4S] 4-[Acetyl-(3,5-bis-trifluoromethyl-benzyl)-amino]-2-cyclopropyl-6-trifluoromethyl-3,4-dihydro-2H-quinoline-1-carboxylic acid propyl ester], the Solubility is above 300 mg/mL (Capmul MCM, oil or lipid); above 300 mg/mL (Miglyol 812, oil or lipid); below 300 mg/mL (Olive oil, oil or lipid); below 300 mg/mL (Safflower oil, oil or lipid).

`CCOC(=O)N1c2ccc(C(F)(F)F)cc2[C@@H](N(C=O)Cc2cc(C(F)(F)F)cc(C(F)(F)F)c2)C[C@H]1CC` [Compound P, [2R,4S] 4-[(3,5-Bis-trifluoromethyl-benzyl)-formyl-amino]-2-ethyl-6-trifluoromethyl-3,4-dihydro-2H-quinoline-1-carboxylic acid ethyl ester]: the Solubility is, setting by setting: (Capmul MCM, oil or lipid) above 300 mg/mL; (Miglyol 812, oil or lipid) above 300 mg/mL; (Olive oil, oil or lipid) above 300 mg/mL; (Safflower oil, oil or lipid) below 300 mg/mL.

Take `COC(=O)N(Cc1cc(C(F)(F)F)cc(C(F)(F)F)c1)[C@H]1CC(C2CC2)N(C(=O)OC(C)C)c2ccc(C(F)(F)F)cc21` (stereo in doubt) [Compound G, [2R,4S] 4-[(3,5-Bis-trifluoromethyl-benzyl)-methoxycarbonyl-amino]-2-cyclopropyl-6-trifluoromethyl-3,4-dihydro-2H-quinoline-1-carboxylic acid isopropyl ester]: the Solubility under setting [4] is above 300 mg/mL; the Solubility under setting [2] is above 300 mg/mL; the Solubility (Olive oil, oil or lipid) is above 300 mg/mL; the Solubility (Sesame oil, oil or lipid) was above 300 mg/mL.

Consider `CCOC(=O)N1c2ccc(C(F)(F)F)cc2[C@@H](N(Cc2cc(C(F)(F)F)cc(C(F)(F)F)c2)C(=O)OC)C[C@H]1C` [Compound L, [2R,4S] 4-[(3,5-Bis-trifluoromethyl-benzyl)-methoxycarbonyl-amino]-2-methyl-6-trifluoromethyl-3,4-dihydro-2H-quinoline-1-carboxylic acid ethyl ester], for which the Solubility reads like this: (Capmul MCM, oil or lipid) above 300 mg/mL; (Miglyol 812, oil or lipid) above 300 mg/mL; (Olive oil, oil or lipid) below 300 mg/mL; (Safflower oil, oil or lipid) above 300 mg/mL.

For `CCOC(=O)N1c2ccc(C(F)(F)F)cc2[C@@H](N(Cc2cc(C(F)(F)F)cc(C(F)(F)F)c2)C(C)=O)C[C@H]1C` [Compound O, [2R,4S] 4-[Acetyl-(3,5-bis-trifluoromethyl-benzyl)-amino]-2-methyl-6-trifluoromethyl-3,4-dihydro-2H-quinoline-1-carboxylic acid ethyl ester], the Solubility (Capmul MCM, oil or lipid) was above 300 mg/mL; the Solubility (Miglyol 812, oil or lipid) was above 300 mg/mL; the Solubility (Olive oil, oil or lipid) was below 300 mg/mL; the Solubility (Safflower oil, oil or lipid) was below 300 mg/mL.

As for `CCOC(=O)N1c2cc(C(F)(F)F)ccc2[C@@H](N(Cc2cc(C(F)(F)F)cc(C(F)(F)F)c2)C(=O)OC)C[C@H]1C` [Compound I, [2R,4S] 4-[(3,5-Bis-trifluoromethyl-benzyl)-methoxycarbonyl-amino]-2-methyl-7-trifluoromethyl-3,4-dihydro-2H-quinoline-1-carboxylic acid ethyl ester], the Solubility (Capmul MCM, oil or lipid) was above 20 mg/mL; the Solubility (Corn oil/Labrafil (80/20), oil or lipid) is below 20 mg/mL; the Solubility (Corn oil/Polysorbate 80 (80/20), oil or lipid) is above 20 mg/mL; the Solubility under setting [1] is below 20 mg/mL; the Solubility (Crodamol GTCC, oil or lipid) is above 20 mg/mL; the Solubility under setting [2] is above 20 mg/mL. The Solubility is, setting by setting: (Olive oil, oil or lipid) below 20 mg/mL; under setting [3], below 20 mg/mL; (Peanut oil, oil or lipid) below 20 mg/mL; (Sesame oil, oil or lipid) below 20 mg/mL.

Turning to `CCOC(=O)N1c2ccc(C(F)(F)F)cc2[C@@H](N(C=O)Cc2cc(C(F)(F)F)cc(C(F)(F)F)c2)C[C@H]1C` [Compound Q, [2R,4S] 4-[(3,5-Bis-trifluoromethyl-benzyl)-formyl-amino]-2-methyl-6-trifluoromethyl-3,4-dihydro-2H-quinoline-1-carboxylic acid ethyl ester], the Solubility is, setting by setting: (Capmul MCM, oil or lipid) above 300 mg/mL; (Miglyol 812, oil or lipid) above 300 mg/mL; (Olive oil, oil or lipid) below 300 mg/mL; (Safflower oil, oil or lipid) below 300 mg/mL.

With `COC(=O)N(Cc1cc(C(F)(F)F)cc(C(F)(F)F)c1)[C@@H]1CC(C2CC2)N(C(=O)OC(C)C)c2ccc(C(F)(F)F)cc21` (stereo in doubt) [Compound H, [2S,4R] 4-[(3,5-Bis-trifluoromethyl-benzyl)-methoxycarbonyl-amino]-2-cyclopropyl-6-trifluoromethyl-3,4-dihydro-2H-quinoline-1-carboxylic acid isopropyl ester], the Solubility is above 300 mg/mL (Capmul MCM, oil or lipid); above 300 mg/mL under setting [1]; below 160 mg/mL under setting [4]; above 300 mg/mL (Crodamol GTCC, oil or lipid); above 300 mg/mL (Olive oil, oil or lipid); below 160 mg/mL under setting [3].

Consider `CCCOC(=O)N1c2ccc(C(F)(F)F)cc2[C@@H](N(Cc2cc(C(F)(F)F)cc(C(F)(F)F)c2)C(=O)OC)C[C@H]1CC` [Compound F, [2R,4S] 4-[(3,5-Bis-trifluoromethyl-benzyl)-methoxycarbonyl-amino]-2-ethyl-6-trifluoromethyl-3,4-dihydro-2H-quinoline-1-carboxylic acid propyl ester], for which the Solubility is below 100 mg/mL (Miglyol 812, oil or lipid) and 303 mg/mL (≈ 493 mM) (Olive oil, oil or lipid).

In the case of `CCCOC(=O)N1c2ccc(C(F)(F)F)cc2[C@@H](N(C=O)Cc2cc(C(F)(F)F)cc(C(F)(F)F)c2)CC1C1CC1` (stereo in doubt) [Compound N, [2R,4S] 4-[(3,5-Bis-trifluoromethyl-benzyl)-formyl-amino]-2-cyclopropyl-6-trifluoromethyl-3,4-dihydro-2H-quinoline-1-carboxylic acid propyl ester], the Solubility (Capmul MCM, oil or lipid) is above 300 mg/mL; the Solubility (Miglyol 812, oil or lipid) was above 300 mg/mL; the Solubility (Olive oil, oil or lipid) is above 300 mg/mL; the Solubility (Safflower oil, oil or lipid) was above 300 mg/mL.
